Data reported in the NIST ThermoML archive (doi:10.1021/acs.jced.6b00293).
± gives the expanded uncertainty stated by the source.

Columns and labels:
[1] = Liquid, Ebulliometric method (Recirculating still)
[2] = Boiling temperature at pressure P; conditions: Liquid, Ebulliometric method (Recirculating still)

Row | Compound | vapor or sublimation pressure ([1]; 315.14 K) | vapor or sublimation pressure ([1]; 329.42 K) | vapor or sublimation pressure ([1]; 338.61 K) | vapor or sublimation pressure ([1]; 345.53 K) | vapor or sublimation pressure ([1]; 351.62 K) | Boiling temperature at pressure P ([2]; 20 kPa) | Boiling temperature at pressure P ([2]; 40 kPa) | Boiling temperature at pressure P ([2]; 60 kPa) | Boiling temperature at pressure P ([2]; 80 kPa) | Boiling temperature at pressure P ([2]; 101.3 kPa)
1 | CCO [ethanol] | 20 ± 1 kPa | 40 ± 1 kPa | 60 ± 1 kPa | 80 ± 2 kPa | 101.3 ± 1.8 kPa | – | – | – | – | –
2 | C1CCCCC1 [cyclohexane] | – | – | – | – | – | 34.77 ± 0.46 °C | 52.32 ± 0.65 °C | 63.93 ± 0.68 °C | 72.94 ± 0.72 °C | 80.96 ± 0.81 °C
